# Measured values published in US20260294915A1, “COMBINATION THERAPY COMPRISING A MAT2A INHIBITOR AND A TOPOISOMERASE INHIBITOR, A SPLICING INHIBITOR SULFONAMIDE, OR A KIF18 INHIBITOR” (IDEAYA BIOSCIENCES, INC., priority 2023, published 2026).
# How the values were obtained:
# Assay type in all cases: cell-based
# NCI-H520 = assay: 10-day proliferation (CTG), Compound B titration + 1000 nM Compound A, Bliss (Example 2); design: key: GDI on scale −100 to 100; 0 = cell number at T0
# Procedure: (§1) A 10-day proliferation assay was performed in a panel of 5 MTAP-deficient and 2 wild type non-small cell lung and bladder cancer cell lines. Optimal cell seeding for all cell lines was determined by assessing the growth over a range of seeding densities in a 384-well format to identify conditions that permitted proliferation for 10 days. Cells were then plated at the optimal seeding density and treated with 20-point, two-fold dilution series of Compound B in combination with a 1000 nM fixed concentration of Compound A. Single agent titrations for Compound A and Compound B were included for comparison. Concentrations tested for Compound A and Compound B alone or in combination ranged from 0.038 nM to 20,000 nM. A plate of cells was harvested at the time of compound addition to quantify the number of cells at the start of the combination (T0). For cell quantification, the harvested cells were lysed with Promega CellTiter-Glo (CTG) reagent according to the manufacturer's protocol and the chemiluminescent signal was detected as described in Example 1 above. Cells were incubated with the drug combinations at 37° C. with 5% CO2 for 10 days. Cells were then lysed with CTG and the chemiluminescent signal was measured.
# (§2) CTG values obtained after the 10-day treatment were background subtracted and expressed as a percent of the T0 value set at 100%. Data were plotted against compound concentration and fit with a four-parameter equation to generate single agent dose response curves. Percent inhibition was determined for each combination and single agent concentration compared to a DMSO control. In addition, the overall net growth or death of the cells was calculated and reported as a growth death index (GDI) value on a scale of −100 to 100 with the midpoint (0) being the number of cells at the beginning of the combination (T0).
# (§3) Synergistic growth inhibition was assessed using the Bliss Independence model for each point of the Compound B titration in combination with 1000 nM Compound A. The observed growth inhibition at each point was compared to the predicted inhibition based on the additive activity of each single agent. Predicted inhibition was calculated using (Ea+Eb)−(Ea*Eb) where E equals the effect (inhibition) of each single agent (a and b). A difference between the observed inhibition percentage and the predicted inhibition percentage greater than 10% was considered synergistic. A Bliss score was only calculated for combinations eliciting >20% growth inhibition (GDI value <80). Since Bliss is calculated based on growth inhibition, scores within cytotoxic dose ranges may not accurately reflect synergistic cytotoxicity.
# (§4) Synergy was measured across the Compound B titration with 1000 nM Compound A by Bliss Independence analysis. Bliss scores >10 are indicated by “*” and are considered synergistic. […] Synergy as reported using Bliss may be underrepresented within cytotoxic dose ranges. Growth death index values are shown for the combination titration and each single agent Compound A (Cmpd A) and Compound B (Cmpd B) on a scale of −100 to 100 with the midpoint (0) being the number of cells at the beginning of the combination (T0). Bliss and GDI values are shown for five MTAP-deficient cell lines: NCI-1H520 (6A), TCCSUP (6B).
# TCCSUP = assay: as above; design: key: GDI on scale −100 to 100; 0 = cell number at T0
# Procedure: as §1, §2, §3, §4
# SW900 = assay: 10-day proliferation (CTG), equimolar Compound A + Compound B (Example 1); conditions: Homo sapiens, SW900, 240 h, 10 days, single agent or 1:1 combo; for IC30: read-out: gIC30; for IC40: read-out: gIC40; for IC50: read-out: gIC50; for IC60: read-out: gIC60; for IC70: read-out: gIC70; for IC80: read-out: gIC80; for IC90: read-out: gIC90; for IC100: read-out: gIC100
# Procedure: (§5) A 10-day proliferation assay was performed in a panel of 5 MTAP-deficient and 2 wild type non-small cell lung and bladder cancer cell lines. Optimal cell seeding for all cell lines was determined by assessing the growth over a range of seeding densities in a 384-well format to identify conditions that permitted proliferation for 10 days. Cells were then plated at the optimal seeding density and treated with 20-point, two-fold dilution series of Compound A, sovilnesib (“Compound B”), or an equimolar combination of Compound A and Compound B. Concentrations tested for Compound A and Compound B alone or in combination ranged from 0.038 nM to 20,000 nM. A plate of cells was harvested at the time of compound addition to quantify the number of cells at the start of the combination (T0). For cell quantification, the harvested cells were lysed with Promega CellTiter-Glo (CTG) reagent according to the manufacturer's protocol and the chemiluminescent signal was detected on a Synergy Neo plate reader. CTG estimates cell number through detection of cellular ATP levels. Cells were incubated with the drug combinations at 37° C. with 5% CO2 for 10 days. Cells were then lysed with CTG and the chemiluminescent signal was measured.
# (§6) CTG values obtained after the 10-day treatment were background subtracted and expressed as a percent of the T0 value. Data were plotted against compound concentration and fit with a four-parameter equation to generate dose response curves for each single agent and the equimolar combination. Growth ICx (gICx) values ranging from gIC30 to gIC100 were interpolated from the fitted curves. Synergistic growth inhibition was assessed by determination of Combination Index (CI) values at these various points across the titration using the mutually non-exclusive equation [Chou, 1983; Chou, 1981] shown below where A equals the gIC value of Compound A, B equals the gICx value of Compound B, and A+B or B+A equals the gICx value of the equimolar combination. A Combination Index value less than 1.0 was considered synergistic.
# (§7) Synergy was measured for equimolar combinations of Compound A and Compound B utilizing the mutually non-exclusive Combination Index equation across gICx values ranging from gIC30-gIC100. Combination Index values are shown for: NCI-H838 (3A), SW900 (3B), RT112/84 (3C), UMUC5 (3D), and UMUC11 (3E).
# RT112/84 = assay: as above; conditions: Homo sapiens, RT112/84, 240 h, 10 days, single agent or 1:1 combo; for IC30: read-out: gIC30; for IC40: read-out: gIC40; for IC50: read-out: gIC50; for IC60: read-out: gIC60; for IC70: read-out: gIC70; for IC80: read-out: gIC80; for IC90: read-out: gIC90; for IC100: read-out: gIC100
# Procedure: as §5, §6, §7
# [1] = Cmpd B 0.04 nM, combo: + 1000 nM Cmpd A
# [2] = Cmpd B 0.1 nM, combo: + 1000 nM Cmpd A
# [3] = Cmpd B 0.2 nM, combo: + 1000 nM Cmpd A
# [4] = Cmpd B 0.3 nM, combo: + 1000 nM Cmpd A
# [5] = Cmpd B 0.6 nM, combo: + 1000 nM Cmpd A
# [6] = Cmpd B 1.2 nM, combo: + 1000 nM Cmpd A
# [7] = Cmpd B 2.4 nM, combo: + 1000 nM Cmpd A
# [8] = Cmpd B 4.9 nM, combo: + 1000 nM Cmpd A
# [9] = Cmpd B 9.8 nM, combo: + 1000 nM Cmpd A
# [10] = Cmpd B 19.5 nM, combo: + 1000 nM Cmpd A
# [11] = Cmpd B 39.1 nM, combo: + 1000 nM Cmpd A
# [12] = Cmpd B 78.1 nM, combo: + 1000 nM Cmpd A
# [13] = Cmpd B 156.3 nM, combo: + 1000 nM Cmpd A
# [14] = Cmpd B 312.5 nM, combo: + 1000 nM Cmpd A
# [15] = Cmpd B 625 nM, combo: + 1000 nM Cmpd A
# [16] = Cmpd B 1250 nM, combo: + 1000 nM Cmpd A
# [17] = Cmpd B 2500 nM, combo: + 1000 nM Cmpd A
# [18] = Cmpd B 5000 nM, combo: + 1000 nM Cmpd A
# [19] = Cmpd B 10000 nM, combo: + 1000 nM Cmpd A
# [20] = Cmpd B 20000 nM, combo: + 1000 nM Cmpd A
compound,measurement,setting,value
"Cc1cc(NC(=O)c2ccc(NS(=O)(=O)CCO)cc2N2CCC3(CC2)CC3)nc(N2CCC(F)(F)CC2)n1 [Compound B, N-(2-(4,4-difluoropiperidin-1-yl)-6-methylpyrimidin-4-yl)-4-((2-hydroxyethyl)sulfonamido)-2-(6-azaspiro[2.5]octan-6-yl)benzamide]",GDI,NCI-H520; [1],100
same,GDI,NCI-H520; [2],100
same,GDI,NCI-H520; [3],100
same,GDI,NCI-H520; [4],100
same,GDI,NCI-H520; [5],100
same,GDI,NCI-H520; [6],100
same,GDI,NCI-H520; [7],100
same,GDI,NCI-H520; [8],100
same,GDI,NCI-H520; [9],100
same,GDI,NCI-H520; [10],100
same,GDI,NCI-H520; [11],100
same,GDI,NCI-H520; [12],100
same,GDI,NCI-H520; [13],100
same,GDI,NCI-H520; [14],85
same,GDI,NCI-H520; [15],77
same,GDI,NCI-H520; [16],92
same,GDI,NCI-H520; [17],92
same,GDI,NCI-H520; [18],61
same,GDI,NCI-H520; [19],17
same,GDI,NCI-H520; [20],−57
same,GDI,TCCSUP; [1],100
same,GDI,TCCSUP; [2],100
same,GDI,TCCSUP; [3],100
same,GDI,TCCSUP; [4],100
same,GDI,TCCSUP; [5],100
same,GDI,TCCSUP; [6],100
same,GDI,TCCSUP; [7],100
same,GDI,TCCSUP; [8],100
same,GDI,TCCSUP; [9],100
same,GDI,TCCSUP; [10],100
same,GDI,TCCSUP; [11],100
same,GDI,TCCSUP; [12],76
same,GDI,TCCSUP; [13],38
same,GDI,TCCSUP; [14],15
same,GDI,TCCSUP; [15],8
same,GDI,TCCSUP; [16],10
same,GDI,TCCSUP; [17],11
same,GDI,TCCSUP; [18],6
same,GDI,TCCSUP; [19],−5
same,GDI,TCCSUP; [20],−95
same,IC30,SW900,5.48 µM
same,IC40,SW900,8.55 µM
same,IC50,SW900,12.3 µM
same,IC60,SW900,16.6 µM
same,IC70,SW900,19.9 µM
same,IC80,SW900,20 µM
same,IC90,SW900,20 µM
same,IC100,SW900,20 µM
same,IC30,RT112/84,0.15 µM
same,IC40,RT112/84,0.17 µM
same,IC50,RT112/84,0.192 µM
same,IC60,RT112/84,0.222 µM
same,IC70,RT112/84,0.273 µM
same,IC80,RT112/84,10.3 µM
same,IC90,RT112/84,20 µM
same,IC100,RT112/84,20 µM
Nc1nc(=O)n(-c2ccccc2Cl)c2nc(C(F)(F)F)ccc12 [Compound A],GDI,"NCI-H520; single agent, 1000 nM Cmpd A",100
same,GDI,"TCCSUP; single agent, 1000 nM Cmpd A",88
same,IC30,SW900,20 µM
same,IC40,SW900,20 µM
same,IC50,SW900,20 µM
same,IC60,SW900,20 µM
same,IC70,SW900,20 µM
same,IC80,SW900,20 µM
same,IC90,SW900,20 µM
same,IC100,SW900,20 µM
same,IC30,RT112/84,0.277 µM
same,IC40,RT112/84,0.854 µM
same,IC50,RT112/84,3 µM
same,IC60,RT112/84,16 µM
same,IC70,RT112/84,20 µM
same,IC80,RT112/84,20 µM
same,IC90,RT112/84,20 µM
same,IC100,RT112/84,20 µM
